Assay results published in patent EP4745137A1 (Gluetacs Therapeutics (Shanghai) Co., Ltd., priority 2023, dated 2025).

Tests used:
SW620 = experiment: Tumor cell proliferation inhibition (CellTiter-Meiluncell Luminescent Cell Viability Assay), SW620; conditions: Homo sapiens, SW-620, 96 h, read-out: inhibitory activity (IC50, nM) against tumor cells proliferation, SW620
Method: (§1) The tumor cells used herein were cultured in a cell culture medium listed in table 2 at 37°C in an incubator with 5% CO2. Prior to experimentation, all cell lines used were correctly identified by STR profiling, and tested negative for mycoplasma contamination using a mycoplasma detection kit through routine screenings.
(§2) On the following day, the test compounds of the present disclosure were subjected to serial dilution. […] Subsequently, 0.5 µL of the test compound dilution was transferred into the 96-well plate containing the cells, with each well containing 100 µL of cell culture medium. […] Into the 96-well plate, the diluted test compounds and corresponding detection reagents were added, resulting in final test compound concentrations of 500 nM and 10 nM, respectively. The experimental procedure is described below using the diluted 2 µM test compound as an example.
(§3) After the cells were treated with the compounds of the present disclosure for a specified period (the treatment durations were shown in Table 3), the cell viability assay reagent was added to the culture medium according to the kit's instructions to determine cell viability. […] All controls were treated using the same procedure as the compounds of the present disclosure. The growth inhibition curves for the compounds of the present disclosure were plotted using Prism GraphPad software, and the IC50 values were calculated therefrom.

GSPT1 = biological target: T1, GSPT1 (Homo sapiens, UniProt P15170+Q96SW2); experiment: Western-blot assay of substrate protein degradation in hPBMCs, GSPT1; assay type: cell-based; conditions: 24 hours of compound treatment, compounds tested at 50 nM and 500 nM (concentration of the table not stated)
T1 construct: endogenous in cells; host or cells: hPBMCs (Milecell Biotechnologies)

[1] = biological target: T2, human Cereblon WT GST-tagged protein (Homo sapiens, UniProt Q96SW2); experiment: CRBN-binding affinity by HTRF (CEREBLON BINDING kit); conditions: HTRF inhibitory activity, CEREBLON BINDING kit; read-out: HTRF IC50
T2 construct: purchased CISBIO 64BDCRBNPEH

CK1α = biological target: T3, CK1α (Homo sapiens, UniProt P48729+Q96SW2); experiment: Western-blot assay of substrate protein degradation in hPBMCs, CK1α; assay type: cell-based; conditions: 24 hours of compound treatment, compounds tested at 50 nM and 500 nM (concentration of the table not stated)
T3 construct: endogenous in cells; host or cells: hPBMCs (Milecell Biotechnologies)

CAL-62 = experiment: Tumor cell proliferation inhibition (CellTiter-Meiluncell Luminescent Cell Viability Assay), CAL-62; conditions: Homo sapiens, CAL-62, 96 h, read-out: inhibitory activity (IC50, nM) against tumor cells proliferation, CAL-62
Method: as §1, §2, §3

WEE1 = biological target: T4, WEE1 (Homo sapiens, UniProt P30291+Q96SW2); experiment: Western-blot assay of substrate protein degradation in hPBMCs, WEE1; assay type: cell-based; conditions: 24 hours of compound treatment, compounds tested at 50 nM and 500 nM (concentration of the table not stated)
T4 construct: endogenous in cells; host or cells: hPBMCs (Milecell Biotechnologies)

CCRF-CEM = experiment: Tumor cell proliferation inhibition (CellTiter-Meiluncell Luminescent Cell Viability Assay), CCRF-CEM; conditions: Homo sapiens, 96 h, read-out: inhibitory activity (IC50, nM) against tumor cells proliferation, CCRF-CEM
Method: as §1, §2, §3

Vcap = experiment: Tumor cell proliferation inhibition (CellTiter-Meiluncell Luminescent Cell Viability Assay), Vcap; conditions: Homo sapiens, 96 h, read-out: inhibitory activity (IC50, nM) against tumor cells proliferation, Vcap
Method: as §1, §2, §3

IKZF1 = biological target: T5, IKZF1 (Homo sapiens, UniProt Q13422+Q96SW2); experiment: Western-blot assay of substrate protein degradation in hPBMCs, IKZF1; assay type: cell-based; conditions: 24 hours of compound treatment, compounds tested at 50 nM and 500 nM (concentration of the table not stated)
T5 construct: endogenous in cells; host or cells: hPBMCs (Milecell Biotechnologies)

IKZF2 = biological target: T6, IKZF2 (Homo sapiens, UniProt Q96SW2+Q9UKS7); experiment: Western-blot assay of substrate protein degradation in hPBMCs, IKZF2; assay type: cell-based; conditions: 24 hours of compound treatment, compounds tested at 50 nM and 500 nM (concentration of the table not stated)
T6 construct: endogenous in cells; host or cells: hPBMCs (Milecell Biotechnologies)

IKZF3 = biological target: T7, IKZF3 (Homo sapiens, UniProt Q96SW2+Q9UKT9); experiment: Western-blot assay of substrate protein degradation in hPBMCs, IKZF3; assay type: cell-based; conditions: 24 hours of compound treatment, compounds tested at 50 nM and 500 nM (concentration of the table not stated)
T7 construct: endogenous in cells; host or cells: hPBMCs (Milecell Biotechnologies)

Jurkat = experiment: Tumor cell proliferation inhibition (CellTiter-Meiluncell Luminescent Cell Viability Assay), Jurkat; conditions: Homo sapiens, 96 h, read-out: inhibitory activity (IC50, nM) against tumor cells proliferation, Jurkat
[2] = test system: Human acute T lymphocytic leukemia cells (Molt-4); experiment: Tumor cell proliferation inhibition (CellTiter-Meiluncell Luminescent Cell Viability Assay), Molt-4; conditions: MOLT-4, 96 h, read-out: inhibitory activity (IC50, nM) against tumor cells proliferation, Molt 4
MM.1R = experiment: Tumor cell proliferation inhibition (CellTiter-Meiluncell Luminescent Cell Viability Assay), MM.1R; conditions: Homo sapiens, 96 h, read-out: inhibitory activity (IC50, nM) against tumor cells proliferation, MM.1R
TMD8 = experiment: Tumor cell proliferation inhibition (CellTiter-Meiluncell Luminescent Cell Viability Assay), TMD8; conditions: Homo sapiens, TMD8, 96 h, read-out: inhibitory activity (IC50, nM) against tumor cells proliferation, TMD8
NCI-H1975 = experiment: Tumor cell proliferation inhibition (CellTiter-Meiluncell Luminescent Cell Viability Assay), NCI-H1975; conditions: Homo sapiens, NCI-H1975, 96 h, read-out: inhibitory activity (IC50, nM) against tumor cells proliferation, H1975
[3] = test system: Human breast cancer cells (MDA-MB-231); experiment: Tumor cell proliferation inhibition (CellTiter-Meiluncell Luminescent Cell Viability Assay), MDA-MB-231; conditions: MDA-MB-231, 96 h, read-out: inhibitory activity (IC50, nM) against tumor cells proliferation, MDA-MB-231

T1 sequence (P15170 whole entry): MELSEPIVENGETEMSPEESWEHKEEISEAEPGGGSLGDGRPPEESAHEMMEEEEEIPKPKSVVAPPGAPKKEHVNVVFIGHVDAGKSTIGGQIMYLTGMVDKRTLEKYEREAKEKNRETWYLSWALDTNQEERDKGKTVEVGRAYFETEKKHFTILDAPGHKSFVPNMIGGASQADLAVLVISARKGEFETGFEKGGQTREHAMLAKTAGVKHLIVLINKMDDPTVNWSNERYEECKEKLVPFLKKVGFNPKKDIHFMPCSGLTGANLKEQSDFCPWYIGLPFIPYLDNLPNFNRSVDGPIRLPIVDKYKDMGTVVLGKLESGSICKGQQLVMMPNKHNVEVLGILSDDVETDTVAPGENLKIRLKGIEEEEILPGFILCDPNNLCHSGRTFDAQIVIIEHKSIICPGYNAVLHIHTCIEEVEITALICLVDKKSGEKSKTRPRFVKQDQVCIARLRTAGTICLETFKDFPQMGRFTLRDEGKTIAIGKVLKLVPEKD
T1 sequence (Q96SW2 whole entry): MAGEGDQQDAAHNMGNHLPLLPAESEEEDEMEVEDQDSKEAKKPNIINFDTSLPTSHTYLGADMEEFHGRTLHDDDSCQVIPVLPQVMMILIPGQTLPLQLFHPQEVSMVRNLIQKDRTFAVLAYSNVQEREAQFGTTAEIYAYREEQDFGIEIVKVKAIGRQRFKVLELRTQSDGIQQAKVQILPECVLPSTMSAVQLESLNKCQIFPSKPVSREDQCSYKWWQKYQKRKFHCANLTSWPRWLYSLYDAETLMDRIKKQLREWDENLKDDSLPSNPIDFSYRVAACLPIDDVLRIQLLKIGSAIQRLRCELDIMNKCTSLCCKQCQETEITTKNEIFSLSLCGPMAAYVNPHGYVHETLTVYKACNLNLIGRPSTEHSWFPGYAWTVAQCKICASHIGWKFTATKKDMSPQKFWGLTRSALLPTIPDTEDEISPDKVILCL
T1 sequence (Q16531 whole entry partner): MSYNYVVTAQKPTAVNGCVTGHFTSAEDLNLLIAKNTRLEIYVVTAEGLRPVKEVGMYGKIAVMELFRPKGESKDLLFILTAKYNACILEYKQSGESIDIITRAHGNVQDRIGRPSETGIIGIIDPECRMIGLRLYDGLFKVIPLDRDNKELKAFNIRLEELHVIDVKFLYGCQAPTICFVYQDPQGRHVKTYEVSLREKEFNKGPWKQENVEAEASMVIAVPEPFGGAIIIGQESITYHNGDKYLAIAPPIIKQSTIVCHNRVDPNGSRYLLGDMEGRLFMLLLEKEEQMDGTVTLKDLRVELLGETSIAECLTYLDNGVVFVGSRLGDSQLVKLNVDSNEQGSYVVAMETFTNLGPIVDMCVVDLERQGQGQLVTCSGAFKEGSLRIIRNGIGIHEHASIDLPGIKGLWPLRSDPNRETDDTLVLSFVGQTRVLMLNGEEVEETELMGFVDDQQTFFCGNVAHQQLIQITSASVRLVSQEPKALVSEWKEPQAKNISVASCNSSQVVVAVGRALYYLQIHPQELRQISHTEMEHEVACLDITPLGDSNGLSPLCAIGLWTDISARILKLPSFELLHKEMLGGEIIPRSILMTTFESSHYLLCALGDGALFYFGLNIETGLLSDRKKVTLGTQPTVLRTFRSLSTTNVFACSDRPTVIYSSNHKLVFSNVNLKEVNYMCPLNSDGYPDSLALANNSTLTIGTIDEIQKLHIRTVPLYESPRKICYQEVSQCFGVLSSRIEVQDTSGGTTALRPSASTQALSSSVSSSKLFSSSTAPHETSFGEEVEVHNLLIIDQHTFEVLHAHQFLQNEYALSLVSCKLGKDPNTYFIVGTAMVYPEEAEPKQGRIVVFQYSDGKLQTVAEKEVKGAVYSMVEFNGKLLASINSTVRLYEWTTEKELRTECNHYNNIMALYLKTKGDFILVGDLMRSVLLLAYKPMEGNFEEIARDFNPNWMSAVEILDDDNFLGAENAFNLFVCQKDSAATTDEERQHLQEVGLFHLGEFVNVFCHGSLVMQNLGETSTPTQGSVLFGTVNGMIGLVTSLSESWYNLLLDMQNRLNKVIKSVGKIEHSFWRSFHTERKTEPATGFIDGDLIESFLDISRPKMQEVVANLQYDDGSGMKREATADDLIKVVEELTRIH
T6 sequence (Q9UKS7 whole entry): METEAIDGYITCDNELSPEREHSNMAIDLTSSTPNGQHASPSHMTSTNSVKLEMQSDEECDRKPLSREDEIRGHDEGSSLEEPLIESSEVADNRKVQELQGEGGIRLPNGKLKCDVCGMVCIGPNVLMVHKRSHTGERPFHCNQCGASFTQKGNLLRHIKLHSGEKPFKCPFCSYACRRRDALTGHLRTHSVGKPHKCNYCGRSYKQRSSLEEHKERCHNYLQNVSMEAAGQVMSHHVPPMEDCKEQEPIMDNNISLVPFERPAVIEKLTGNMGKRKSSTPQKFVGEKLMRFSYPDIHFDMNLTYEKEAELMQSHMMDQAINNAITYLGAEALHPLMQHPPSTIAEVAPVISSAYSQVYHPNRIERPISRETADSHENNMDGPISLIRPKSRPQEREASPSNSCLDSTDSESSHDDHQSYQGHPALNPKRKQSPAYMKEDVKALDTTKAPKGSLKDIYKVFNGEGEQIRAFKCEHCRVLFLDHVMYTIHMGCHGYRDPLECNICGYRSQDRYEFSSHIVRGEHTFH
T6 sequence (Q96SW2 whole entry): as the sequence (Q96SW2 whole entry) above
T6 sequence (Q16531 whole entry partner): as the sequence (Q16531 whole entry partner) above
T3 sequence (P48729 whole entry): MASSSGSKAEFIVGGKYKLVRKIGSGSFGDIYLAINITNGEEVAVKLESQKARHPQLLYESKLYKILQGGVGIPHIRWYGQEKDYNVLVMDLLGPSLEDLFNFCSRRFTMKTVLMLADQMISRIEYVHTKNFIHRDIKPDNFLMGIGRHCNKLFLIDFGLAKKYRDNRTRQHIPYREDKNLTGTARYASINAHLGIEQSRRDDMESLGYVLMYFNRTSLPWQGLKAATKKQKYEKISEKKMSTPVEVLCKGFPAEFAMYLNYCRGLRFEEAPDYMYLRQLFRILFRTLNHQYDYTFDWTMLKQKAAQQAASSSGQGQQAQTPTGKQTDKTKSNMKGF
T3 sequence (Q96SW2 whole entry): as the sequence (Q96SW2 whole entry) above
T3 sequence (Q16531 whole entry partner): as the sequence (Q16531 whole entry partner) above
T7 sequence (Q9UKT9 whole entry): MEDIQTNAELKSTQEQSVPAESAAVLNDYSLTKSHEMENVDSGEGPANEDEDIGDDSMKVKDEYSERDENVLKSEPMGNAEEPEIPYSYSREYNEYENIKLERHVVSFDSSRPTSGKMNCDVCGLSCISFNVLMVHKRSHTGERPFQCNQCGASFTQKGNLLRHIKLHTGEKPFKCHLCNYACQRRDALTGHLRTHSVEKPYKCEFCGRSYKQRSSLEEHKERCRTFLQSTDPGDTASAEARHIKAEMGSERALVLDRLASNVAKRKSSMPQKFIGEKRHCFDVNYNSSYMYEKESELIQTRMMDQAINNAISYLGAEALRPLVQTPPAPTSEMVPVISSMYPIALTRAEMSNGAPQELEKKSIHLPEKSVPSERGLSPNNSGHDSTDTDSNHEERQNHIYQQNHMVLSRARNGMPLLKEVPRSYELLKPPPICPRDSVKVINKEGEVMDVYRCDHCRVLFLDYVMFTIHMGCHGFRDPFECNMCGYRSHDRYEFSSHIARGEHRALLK
T7 sequence (Q96SW2 whole entry): as the sequence (Q96SW2 whole entry) above
T7 sequence (Q16531 whole entry partner): as the sequence (Q16531 whole entry partner) above
T4 sequence (P30291 whole entry): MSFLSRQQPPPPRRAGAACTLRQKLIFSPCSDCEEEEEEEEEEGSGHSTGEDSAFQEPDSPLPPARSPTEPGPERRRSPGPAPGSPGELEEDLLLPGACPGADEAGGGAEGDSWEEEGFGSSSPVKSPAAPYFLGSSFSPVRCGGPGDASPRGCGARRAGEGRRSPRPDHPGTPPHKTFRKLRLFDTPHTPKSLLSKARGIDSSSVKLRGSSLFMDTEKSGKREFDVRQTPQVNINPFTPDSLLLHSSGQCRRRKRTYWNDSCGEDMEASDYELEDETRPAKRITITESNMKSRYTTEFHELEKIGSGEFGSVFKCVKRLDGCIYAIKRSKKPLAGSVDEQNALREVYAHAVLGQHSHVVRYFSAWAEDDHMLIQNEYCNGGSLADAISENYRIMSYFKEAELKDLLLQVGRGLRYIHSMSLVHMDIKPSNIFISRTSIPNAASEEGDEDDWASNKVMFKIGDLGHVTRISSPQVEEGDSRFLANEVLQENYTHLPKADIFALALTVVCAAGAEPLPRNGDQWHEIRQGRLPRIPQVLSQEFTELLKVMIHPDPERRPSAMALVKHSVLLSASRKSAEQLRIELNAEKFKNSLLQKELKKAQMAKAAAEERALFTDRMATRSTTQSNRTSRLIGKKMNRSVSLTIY
T4 sequence (Q96SW2 whole entry): as the sequence (Q96SW2 whole entry) above
T4 sequence (Q16531 whole entry partner): as the sequence (Q16531 whole entry partner) above
T2 sequence (Q96SW2 whole entry): as the sequence (Q96SW2 whole entry) above

SMILES	IC50 (SW620) [nM]	IC50 [1] [nM]	IC50 (CAL-62) [nM]	IC50 (CCRF-CEM) [nM]	IC50 (Vcap) [nM]	IC50 (Jurkat) [nM]	IC50 [2] [nM]	IC50 (MM.1R) [nM]	IC50 (TMD8) [nM]	IC50 (NCI-H1975) [nM]	IC50 [3] [nM]	GSPT1 substrate protein remaining % (GSPT1)	CK1a substrate protein remaining % (CK1α)	Weel substrate protein remaining % (WEE1)	IKZF 1 substrate protein remaining % (IKZF1)	IKZF2 substrate protein remaining % (IKZF2)	IKZF3 substrate protein remaining % (IKZF3)
Cc1nc(C2=CCN(Cc3ccc4c(c3)CN(C3CCC(=O)NC3=O)C4=O)CC2)c2ccsc2n1 (centres unmarked) [GT-04718, 3-(5-((4-(2-methylthieno[2,3-d]pyrimidin-4-yl)-3,6-dihydropyridin-1(2H)-yl)methyl)-1-oxoisoindolin-2-yl)piperidine-2,6-dione]		500 to 1000					1 to 5		10 to 50	10 to 50	5 to 10	A (0% ≤ substrate protein remaining % ≤ 80%)	B (80%< substrate protein remaining %≤ 100%)	A (0% ≤ substrate protein remaining % ≤ 80%)	A (0% ≤ substrate protein remaining % ≤ 80%)	A (0% ≤ substrate protein remaining % ≤ 80%)	A (0% ≤ substrate protein remaining % ≤ 80%)
O=C1CCC(N2Cc3cc(CN4C[C@H]5C[C@@H]4CN5c4cccc(Cl)c4Cl)ccc3C2=O)C(=O)N1 (stereo partly drawn) [GT-04724, 3-(5-(((1R,4R)-5-(2,3-dichlorophenyl)-2,5-diazabicyclo[2.2.1]heptan-2-yl)methyl)-1-oxoisoindolin-2-yl)piperidine-2,6-dione]		< 500					5 to 10		50 to 100	50 to 100	10 to 50	A (0% ≤ substrate protein remaining % ≤ 80%)	A (0% ≤ substrate protein remaining % ≤ 80%)	A (0% ≤ substrate protein remaining % ≤ 80%)	A (0% ≤ substrate protein remaining % ≤ 80%)	A (0% ≤ substrate protein remaining % ≤ 80%)	A (0% ≤ substrate protein remaining % ≤ 80%)
Cc1ccsc1C1=CCN(Cc2ccc3c(c2F)CN(C2CCC(=O)NC2=O)C3=O)CC1 (centres unmarked) [GT-04729, 3-(4-fluoro-5-((4-(3-methylthiophen-2-yl)-3,6-dihydropyridin-1(2H)-yl)methyl)-1-oxoisoindolin-2-yl)piperidine-2,6-dione]		500 to 1000					1 to 5		10 to 50	10 to 50	1 to 5	A (0% ≤ substrate protein remaining % ≤ 80%)	B (80%< substrate protein remaining %≤ 100%)	A (0% ≤ substrate protein remaining % ≤ 80%)	A (0% ≤ substrate protein remaining % ≤ 80%)	A (0% ≤ substrate protein remaining % ≤ 80%)	A (0% ≤ substrate protein remaining % ≤ 80%)
Cc1ccsc1C1=CCN(Cc2cc(F)c3c(c2)CN(C2CCC(=O)NC2=O)C3=O)CC1 (centres unmarked) [GT-04730, 3-(7-fluoro-5-((4-(3-methylthiophen-2-yl)-3,6-dihydropyridin-1(2H)-yl)methyl)-1-oxoisoindolin-2-yl)piperidine-2,6-dione]		500 to 1000					1 to 5		10 to 50	10 to 50	10 to 50	A (0% ≤ substrate protein remaining % ≤ 80%)	A (0% ≤ substrate protein remaining % ≤ 80%)	A (0% ≤ substrate protein remaining % ≤ 80%)	A (0% ≤ substrate protein remaining % ≤ 80%)	A (0% ≤ substrate protein remaining % ≤ 80%)	A (0% ≤ substrate protein remaining % ≤ 80%)
O=C1CCC(N2Cc3c(ccc(CN4CCC(c5noc6cc(F)ccc56)CC4)c3F)C2=O)C(=O)N1 (centres unmarked) [GT-04765, 3-(4-fluoro-5-((4-(6-fluorobenzo[d]isoxazol-3-yl)piperidin-1-yl)methyl)-1-oxoisoindolin-2-yl)piperidine-2,6-dione]		1000 to 1500					5 to 10		100 to 500	50 to 100	10 to 50	A (0% ≤ substrate protein remaining % ≤ 80%)	A (0% ≤ substrate protein remaining % ≤ 80%)	A (0% ≤ substrate protein remaining % ≤ 80%)	A (0% ≤ substrate protein remaining % ≤ 80%)	A (0% ≤ substrate protein remaining % ≤ 80%)	A (0% ≤ substrate protein remaining % ≤ 80%)

Continued, in another order:

IC50 (SW620) [nM]	IC50 [1] [nM]	IC50 (CAL-62) [nM]	IC50 (CCRF-CEM) [nM]	IC50 (Vcap) [nM]	IC50 (Jurkat) [nM]	IC50 [2] [nM]	IC50 (MM.1R) [nM]	IC50 (TMD8) [nM]	IC50 (NCI-H1975) [nM]	IC50 [3] [nM]	SMILES	GSPT1 substrate protein remaining % (GSPT1)	CK1a substrate protein remaining % (CK1α)	Weel substrate protein remaining % (WEE1)	IKZF 1 substrate protein remaining % (IKZF1)	IKZF2 substrate protein remaining % (IKZF2)	IKZF3 substrate protein remaining % (IKZF3)
100 to 500	500 to 1000	50 to 100	10 to 50	500 to 1000	100 to 500						O=C1CCC(N2Cc3cc(CN4CCN(c5nsc6ccccc56)CC4)ccc3C2=O)C(=O)N1 (centres unmarked) [GT-04255, 3-(5-((4-(benzo[d]isothiazol-3-yl)piperazin-1-yl)methyl)-1-oxoisoindolin-2-yl)piperidine-2,6-dione]	A (0% ≤ substrate protein remaining % ≤ 80%)	A (0% ≤ substrate protein remaining % ≤ 80%)	A (0% ≤ substrate protein remaining % ≤ 80%)	A (0% ≤ substrate protein remaining % ≤ 80%)	A (0% ≤ substrate protein remaining % ≤ 80%)	A (0% ≤ substrate protein remaining % ≤ 80%)
500 to 1000	500 to 1000	50 to 100	10 to 50	100 to 500	10 to 50	10 to 50	50 to 100				O=C1CCC(N2Cc3cc(CN4CCN(c5cccc(F)n5)CC4)ccc3C2=O)C(=O)N1 (centres unmarked) [GT-04498, 3-(5-((4-(6-fluoropyridin-2-yl)piperazin-1-yl)methyl)-1-oxoisoindolin-2-yl)piperidine-2,6-dione]	A (0% ≤ substrate protein remaining % ≤ 80%)	A (0% ≤ substrate protein remaining % ≤ 80%)	A (0% ≤ substrate protein remaining % ≤ 80%)	A (0% ≤ substrate protein remaining % ≤ 80%)	A (0% ≤ substrate protein remaining % ≤ 80%)	A (0% ≤ substrate protein remaining % ≤ 80%)
	< 500					1 to 5		10 to 50	10 to 50	5 to 10	Cn1cc(C2=CCN(Cc3ccc4c(c3)CN(C3CCC(=O)NC3=O)C4=O)CC2)c2ccc(F)cc21 (centres unmarked) [GT-04723, 3-(5-((4-(6-fluoro-1-methyl-1H-indol-3-yl)-3,6-dihydropyridin-1(2H)-yl)methyl)-1-oxoisoindolin-2-yl)piperidine-2,6-dione]	A (0% ≤ substrate protein remaining % ≤ 80%)	A (0% ≤ substrate protein remaining % ≤ 80%)	A (0% ≤ substrate protein remaining % ≤ 80%)	A (0% ≤ substrate protein remaining % ≤ 80%)	A (0% ≤ substrate protein remaining % ≤ 80%)	A (0% ≤ substrate protein remaining % ≤ 80%)
